Reference: ChEMBL document CHEMBL1145450, “Platinum complexes can inhibit matrix metalloproteinase activity: platinum-diethyl[(methylsulfinyl)methyl]phosphonate complexes as inhibitors of matrix metalloproteinases 2, 3, 9, and 12” (J Med Chem, 2007)

Experiments:
[1] = molecular target: 72 kDa type IV collagenase (Homo sapiens, UniProt P08253); test: Inhibition of human recombinant MMP2 after 1 hr
[2] = molecular target: Matrix metalloproteinase-9 (Homo sapiens, UniProt P14780); test: Inhibition of human recombinant MMP9 after 1 hr
Stromelysin-1 = Stromelysin-1 (Homo sapiens, UniProt P08254); test: Inhibition of human recombinant MMP3 after 1 hr
[3] = molecular target: Macrophage metalloelastase (Homo sapiens, UniProt P39900); test: Inhibition of human recombinant MMP12 after 1 hr
Chain of Macrophage metalloelastase (P39900 whole entry): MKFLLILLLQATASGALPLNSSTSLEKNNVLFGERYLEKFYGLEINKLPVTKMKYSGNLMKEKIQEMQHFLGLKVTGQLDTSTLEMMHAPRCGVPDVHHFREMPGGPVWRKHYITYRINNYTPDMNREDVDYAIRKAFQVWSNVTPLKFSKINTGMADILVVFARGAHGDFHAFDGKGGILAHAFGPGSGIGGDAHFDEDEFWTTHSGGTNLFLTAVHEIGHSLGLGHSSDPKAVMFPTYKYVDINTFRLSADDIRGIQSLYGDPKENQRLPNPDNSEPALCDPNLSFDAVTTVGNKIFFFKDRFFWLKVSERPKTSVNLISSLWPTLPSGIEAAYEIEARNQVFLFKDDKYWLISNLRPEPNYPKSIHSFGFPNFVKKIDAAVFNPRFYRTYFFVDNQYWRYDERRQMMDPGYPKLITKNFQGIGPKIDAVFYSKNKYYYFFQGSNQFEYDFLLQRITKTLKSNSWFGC

Chain of Matrix metalloproteinase-9 (P14780 whole entry): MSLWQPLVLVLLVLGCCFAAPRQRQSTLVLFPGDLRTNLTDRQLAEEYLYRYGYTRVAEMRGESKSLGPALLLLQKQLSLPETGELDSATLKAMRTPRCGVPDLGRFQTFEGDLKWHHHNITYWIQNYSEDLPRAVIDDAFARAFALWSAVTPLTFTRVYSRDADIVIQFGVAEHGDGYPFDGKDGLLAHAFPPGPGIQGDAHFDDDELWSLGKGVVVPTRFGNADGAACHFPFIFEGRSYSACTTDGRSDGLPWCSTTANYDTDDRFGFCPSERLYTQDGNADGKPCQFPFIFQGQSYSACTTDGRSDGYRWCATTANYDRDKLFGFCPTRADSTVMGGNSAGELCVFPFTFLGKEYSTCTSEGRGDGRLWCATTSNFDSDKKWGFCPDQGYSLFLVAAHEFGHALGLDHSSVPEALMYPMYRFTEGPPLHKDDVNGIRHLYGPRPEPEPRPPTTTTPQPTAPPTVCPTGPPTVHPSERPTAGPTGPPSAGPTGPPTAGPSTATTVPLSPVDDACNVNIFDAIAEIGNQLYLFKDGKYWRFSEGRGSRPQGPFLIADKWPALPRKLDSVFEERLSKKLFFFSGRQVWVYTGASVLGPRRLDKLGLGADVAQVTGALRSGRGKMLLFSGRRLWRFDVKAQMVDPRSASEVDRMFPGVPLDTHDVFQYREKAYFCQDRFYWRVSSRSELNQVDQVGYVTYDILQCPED
Chain of 72 kDa type IV collagenase (P08253 whole entry): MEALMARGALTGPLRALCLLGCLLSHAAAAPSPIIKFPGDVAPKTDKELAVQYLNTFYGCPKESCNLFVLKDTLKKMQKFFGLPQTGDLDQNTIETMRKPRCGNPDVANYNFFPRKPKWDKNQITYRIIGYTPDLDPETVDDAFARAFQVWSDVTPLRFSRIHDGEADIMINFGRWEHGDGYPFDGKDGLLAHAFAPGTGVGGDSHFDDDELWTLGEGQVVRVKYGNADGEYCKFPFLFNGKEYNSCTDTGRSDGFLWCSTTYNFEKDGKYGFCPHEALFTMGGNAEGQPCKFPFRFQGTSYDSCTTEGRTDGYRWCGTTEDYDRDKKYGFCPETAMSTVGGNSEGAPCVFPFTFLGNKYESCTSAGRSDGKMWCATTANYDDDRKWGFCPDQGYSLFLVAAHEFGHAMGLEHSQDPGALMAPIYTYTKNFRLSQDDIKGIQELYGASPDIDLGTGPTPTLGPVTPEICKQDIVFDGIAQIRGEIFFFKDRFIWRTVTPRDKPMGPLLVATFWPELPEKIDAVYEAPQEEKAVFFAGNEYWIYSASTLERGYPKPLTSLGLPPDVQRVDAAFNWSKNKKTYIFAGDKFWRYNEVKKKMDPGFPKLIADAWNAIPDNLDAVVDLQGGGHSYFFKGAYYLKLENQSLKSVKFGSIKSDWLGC
Chain of Stromelysin-1 (P08254 whole entry): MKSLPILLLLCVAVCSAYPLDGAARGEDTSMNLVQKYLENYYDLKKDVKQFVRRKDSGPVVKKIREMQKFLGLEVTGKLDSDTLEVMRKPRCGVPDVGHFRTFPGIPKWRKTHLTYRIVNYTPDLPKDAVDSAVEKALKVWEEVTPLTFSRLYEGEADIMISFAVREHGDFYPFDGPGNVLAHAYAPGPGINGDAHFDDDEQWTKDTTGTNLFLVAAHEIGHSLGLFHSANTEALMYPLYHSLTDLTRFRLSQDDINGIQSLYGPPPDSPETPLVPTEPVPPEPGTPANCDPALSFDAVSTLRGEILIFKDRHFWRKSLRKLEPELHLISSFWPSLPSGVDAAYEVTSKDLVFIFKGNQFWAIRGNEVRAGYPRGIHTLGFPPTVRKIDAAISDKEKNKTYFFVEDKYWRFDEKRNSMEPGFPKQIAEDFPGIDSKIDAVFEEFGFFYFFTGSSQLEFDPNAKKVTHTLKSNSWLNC

O=P(O)(O)C(Cl)(Cl)P(=O)(O)O [CLODRONIC ACID]
IC50 [1]: 145 µM
IC50 [2]: 320 µM
IC50 (Stromelysin-1): 300 µM
IC50 [3]: 121 µM
